Where two headings read alike, the source gives them in different places.
Experiments:
[1] = tested on: NCI-H1568 cells (high MCL1); assay: Cell proliferation and viability, CellTiter-Glo, 72 hours; type: cell-based; conditions: for GI50: geometric mean
Experimental: (§1) Cell lines were maintained in RPMI-1640 (ATCC 30-2001) supplemented with 10% fetal bovine serum (FBS). The Panc lines were supplemented in addition with insulin and FBS up to 15% total.
(§2) Compounds for assay were prepared as stocks in 90% dimethyl sulfoxide (DMSO), assessed for purity by LC/MS, and serially diluted in DMSO using a low-volume liquid handler (VIAFLO ASSIST and VIAFLO II electronic 16-channel pipette, 0.5-12.5 μL) in an 11-point half-log serial dilution to create a master dose response (MDR) source used for all tests.
(§3) Transfer of compounds from the MDR source plate to cell assay-ready plates were accomplished directly by low-energy acoustic transfer (ATS100, EDC Biosystems). After transfer of compounds to the assay plate, the dose-response range experienced by cells was typically 10 μM-100 pM (5 logs), and final DMSO concentration in the assay was 0.1%, uniformly. Each assay plate was self-anchored containing vehicle/DMSO negative controls, medium-only/positive controls, and cidal control dose-responses of bortezomib and staurosporine. Assay-ready plates were heat-sealed and stored at −20° C. until used, no longer than one month.
(§4) A DMSO-matched time zero (T0) plate was read and then all other plates were incubated at 37° C. with 5% CO2 and 95% relative humidity until the end of assay. Cell proliferation and viability assays were performed 72 hours post-treatment depending on cell growth where at least one doubling would have occurred.
(§5) Assessment of viability and proliferation was by measurement of cell ATP content using CellTiter-Glo® Luminescent Cell Viability Assay reagent (Promega) according to the manufacturer's instructions (CellTiter-Glo® Luminescent Cell Viability Assay Technical Bulletin Instructions for Use of Product(s) G7570, G7571, G7572, G7573 Literature #TB288, Revised March 2015), using a microtiter plate reader (Envision, PE).
(§6) Cell proliferation was evaluated using the time zero (T0) signal as the positive control and the within-plate vehicle wells (DMSO) as the negative control. Data was converted to percent inhibition and falls into the range from −100% to 100% of growth where −100% equals a cidal response and 100% equals uninhibited or maximal growth. Cell growth at or near 0% is considered a static response.

[2] = biological target: T1, SF3b complexes (Homo sapiens, UniProt O75533+Q7RTV0); assay: Scintillation proximity assay (SPA) with [3H]-labelled pladienolide probe; type: binding; conditions: SF3B1 (WT); geometric mean; read-out: SPA-ATS GMean IC50 (nM) SF3B1 (WT)
T1 construct: endogenous in cells; host or cells: Nuclear extracts; A HeLa S3 extract preparation is described for the in vitro splicing assay
Experimental: Scintillation Proximity Assay (SPA) with [^3-H]-Labelled Pladienolide Probe
(§7) Batch immobilization of anti-SF3B1 antibody (MBL) to anti-mouse PVT SPA scintillation beads (PerkinElmer) was prepared as follows: for every 2.5 mg of nuclear extracts, 5 μg anti-SF3B1 antibody and 1.5 mg of beads were mixed in 150 μl PBS. The antibody-bead mixture was incubated for 30 min at RT and centrifuged at 18,000 g for 5 min. 150 μl PBS was used to resuspend every 1.5 mg antibody-bead mixture. The beads were suspended and added to the prepared nuclear extracts. The slurry was incubated for 2 h at 4° C. with gentle mixing. The beads were then collected by centrifuging at 18,000 g for 5 min, and washed twice with PBS+0.1% Triton X-100. After a final centrifugation step, every 1.5 mg of beads was suspended with 150 μl of PBS. The SF3b complexes were tested for [^3H]-labelled pladienolide probe binding ([^3H]—PB), synthesized as previously described (Kotake et al., 2007). 100 μl binding reactions were prepared with 50 μl bead slurry and by adding varying concentrations of PB or PB—OH, and after 30 min pre-incubation, 2.5 nM [^3H]—PB was added. The mixture was incubated for 30 min, and luminescence signals were read using a MicroBeta2 Plate Counter (PerkinElmer). Prism 6 (Graphpad) was used for non-linear regression curve fitting of the data. • a. • b. HeLa nuclear extract preparation (for in vitro splicing modulation assay below) • c. HeLa S3 cell pellets were resuspended in hypotonic buffer (10 mM HEPES pH 7.9, 1.5 mM MgCl2, 10 mM KCl, 0.2 mM PMSF, and 0.5 mM DTT) and the suspension was brought up to a total of 5 packed cell volume (PCV). After centrifugation, the supernatant was discarded, and the cells were brought up to 3 PCV with hypotonic buffer and incubated on ice for 10 minutes. Cells were lysed using a dounce homogenizer and then centrifuged. The supernatant was discarded, and the pellet was resuspended with ½ packed nuclear volume (PNV) of low salt buffer (20 mM HEPES pH 7.9, 1.5 mM MgCl2, 20 mM KCl, 0.2 mM EDTA, 25% glycerol, 0.2 mM PMSF, 0.5 mM DTT), followed by ½ PNV of high salt buffer (same as low salt buffer except 1.4 M KCl was used). The nuclei were gently mixed for 30 minutes before centrifuging. The supernatant (nuclear extract) was then dialyzed into storage buffer (20 mM HEPES pH 7.9, 100 mM KCl, 0.2 mM EDTA, 20% glycerol, 0.2 mM PMSF, 0.5 mM DTT). Protein concentration was determined using NanoDrop 8000 UV-Vis spectrophotometer (ThermoFisher Scientific). • d. In vitro splicing assay (IVS)

[3] = tested on: Ad2 variant pre-mRNAs spliced in HeLa S3 nuclear extracts; assay: In vitro splicing assay (IVS), RT-qPCR of spliced product; type: biochemical; conditions: for IC50: geometric mean; for Ratio Ad2.1/2.2: ratio of IVS IC50 Ad2.1 to Ad2.2
Experimental: as §7
All Ad2-derived (Pellizzoni et al., 1998) sequences were cloned into pcDNA3.1(+) vector (Promega) using 5′ EcoRI and 3′ XbaI restriction sites. The plasmids were linearized using XbaI and used as DNA templates in the in vitro transcription reactions. The FtzΔi intron-less plasmid (Luo and Reed, 1999) was linearized using EcoRI. All RNAs were in vitro transcribed and then purified using MEGAScript T7 (Invitrogen) and MegaClear (Invitrogen) kits, respectively. For splicing reactions using Ad2 variant pre-mRNAs, […] reactions were prepared using 8 μg nuclear extracts prepared from HeLa S3, 2 ng pre-mRNA, 0.2 ng FTZΔi, and varying concentrations of exemplary payloads or DMSO. After a 15 minute pre-incubation at 30° C., 1 μL splicing activation buffer (0.5 mM ATP, 20 mM creatine phosphate, 1.6 mM MgCl2) was added, and the reactions were incubated for 90 minutes at 30° C. The reactions were then quenched with 13 μL it DMSO, and 25 nL was used for RT-qPCR. RT-qPCR reactions were prepared using TaqMan RNA-to-CT 1-step kit (Life Technologies), RNA from splicing reactions, Ad2 (forward: […]; reverse: […]; probe: […]) and Ftz (forward: […]; reverse: […]; probe: […]) mRNA primer-probe sets. Prism 6 (Graphpad) was used for non-linear regression curve fitting of the formed spliced product and normalized to the control (DMSO) sample.

[4] = tested on: Panc 05.04 cells (SF3b K700E mutant); assay: Cell proliferation and viability, CellTiter-Glo, 72 hours; type: cell-based; conditions: for GI50: geometric mean
Experimental: as §1, §2, §3, §4, §5, §6

[5] = 72 h, NCIH1568.1, -100% = cidal, 0% = static, 100% = uninhibited growth
[6] = NCI-H1568, 72 h, read-out: CTGlo-ATS GMean GI50 (nM) 72 h NCIH1568.1, 72 h, NCIH1568.1
[7] = Ad2.1 pre-mRNA substrate, read-out: qPCR-IVS-ATS GMean IC50 (nM) Ad2.1
[8] = Ad2.2 pre-mRNA substrate, read-out: qPCR-IVS-ATS GMean IC50 (nM) Ad2.2
[9] = 72 h, PANC0504.1, -100% = cidal, 0% = static, 100% = uninhibited growth
[10] = Panc 05.04, 72 h, read-out: CTGlo-ATS GMean GI50 (nM) 72 h PANC0504.1, 72 h, PANC0504.1
[11] = PANC0504.1 cells, 72 h, −100% cidal, 0% static, 100% maximal growth
[12] = Panc 05.04, 72 h, read-out: CTGlo-ATS GMean GI50 (nM) 72 h PANC0504.1, PANC0504.1 cells, 72 h
[13] = NCIH1568.1 cells, 72 h, −100% cidal, 0% static, 100% maximal growth
[14] = Panc 05.04, read-out: CTGlo-ATS GMean GI50 (nM) 72 h PANC0504.1, PANC0504.1 cells, 72 h
[15] = NCI-H1568, read-out: CTGlo-ATS GMean GI50 (nM) 72 h NCIH1568.1, NCIH1568.1 cells, 72 h

Row | Compound | CTGlo-ATS Mean MinResponse % 72 h NCIH1568.1 [1, 5] [%] | GI50 [1, 6] [nM] | IC50 [2] [nM] | IC50 [3, 7] [nM] | IC50 [3, 8] [nM] | Ratio Ad2.1/2.2 [3] | CTGlo-ATS Mean MinResponse % 72 h PANC0504.1 [4, 9] [%] | GI50 [4, 10] [nM] | CTGlo-ATS Mean MinResponse % 72 h PANC0504.1 [4, 11] [%] | GI50 [4, 12] [nM] | GI50 ([1]; NCI-H1568, 72 h, read-out: CTGlo-ATS GMean GI50 (nM) 72 h NCIH1568.1, NCIH1568.1 cells, 72 h) [nM] | CTGlo-ATS Mean MinResponse % 72 h NCIH1568.1 [1, 13] [%] | GI50 [4, 14] [nM] | GI50 [1, 15] [nM]
1 | C/C(=C\c1cc(F)cc(N2CCN(C(=O)Cn3cccn3)CC2)c1)[C@H]1OC(=O)C[C@H](O)CC[C@H](C)[C@@H](OC(=O)N2CCC(N(C)C)C2)/C=C/[C@@H]1C (stereo in doubt) [Compound 227, [(2S,3S,4E,6R,7S,10R)-2-[(E)-1-[3-fluoro-5-[4-(2-pyrazol-1-ylacetyl)piperazin-1-yl]phenyl]prop-1-en-2-yl]-10-hydroxy-3,7-dimethyl-12-oxo-1-oxacyclododec-4-en-6-yl] (3S)-3-(dimethylamino)pyrrolidine-1-carboxylate] | −81.522 | 2.37 | 3.25 | – | – | – | – | – | – | – | – | – | – | –
2 | C/C(=C\c1cccc(COC(=O)N2CCCC2CO)c1)[C@H]1OC(=O)C[C@H](O)CC[C@H](C)[C@@H](OC(=O)N2CCN(C)CC2)/C=C/[C@@H]1C (stereo in doubt) [Compound 259, [(2S,3S,4E,6R,7S,10R)-10-hydroxy-2-[(E)-1-[3-[[(2R)-2-(hydroxymethyl)pyrrolidine-1-carbonyl]oxymethyl]phenyl]prop-1-en-2-yl]-3,7-dimethyl-12-oxo-1-oxacyclododec-4-en-6-yl] 4-methylpiperazine-1-carboxylate] | −43.329 | 133 | – | > 25000 | 83.1 | 300.977 | −86.489 | 31.5 | – | – | – | – | – | –
3 | C/C(=C\c1ccc(F)c(N2CCOCC2)c1)[C@H]1OC(=O)C[C@H](O)CC[C@H](C)[C@@H](OC(=O)N2CCN(C)CC2)/C=C/[C@@H]1C [Compound 8] | – | – | – | 14200 | 42.2 | – | – | – | −94.207 | 19.3 | – | – | – | –
4 | C/C(=C\c1cc(F)cc(N2CCC(O)CC2)c1)[C@H]1OC(=O)C[C@H](O)CC[C@H](C)[C@@H](OC(=O)N2CCN(C)CC2)/C=C/[C@@H]1C [Compound 30] | – | – | – | 19.1 | 11 | – | – | – | −75.997 | 7.02 | 5.89 | −78.664 | – | –
5 | C/C(=C\c1cc(F)cc(N2CCOCC2)c1)[C@H]1OC(=O)C[C@H](O)CC[C@H](C)[C@@H](OC(=O)N(C)Cc2ccncc2)/C=C/[C@@H]1C [Compound 47] | – | – | – | 16900 | 79.6 | – | – | – | −87.783 | – | – | −44.494 | 78.2 | 66.5
6 | C/C(=C\c1ccc(S(=O)(=O)NC2CC2)c(F)c1)[C@H]1OC(=O)C[C@H](O)CC[C@H](C)[C@@H](OC(=O)N2CCN(C)CC2)/C=C/[C@@H]1C [Compound 90, [(2S,3S,4E,6R,7S,10R)-2-[(E)-1-[4-(cyclopropylsulfamoyl)-3-fluorophenyl]prop-1-en-2-yl]-10-hydroxy-3,7-dimethyl-12-oxo-1-oxacyclododec-4-en-6-yl] 4-methylpiperazine-1-carboxylate] | – | – | – | > 25000 | 168 | – | – | – | −12.315 | – | – | −8.495 | 141 | 107
7 | C/C(=C\c1cc(F)c2nnn(CC3CCOCC3)c2c1)[C@H]1OC(=O)C[C@H](O)CC[C@H](C)[C@@H](OC(=O)N2CCN(C)CC2)/C=C/[C@@H]1C [Compound 148] | – | – | 2.24 | – | – | – | – | – | – | – | – | −85.010 | – | 1.42
8 | C/C(=C\c1cccc(COC(=O)N2CCC(O)CC2)c1)[C@H]1OC(=O)C[C@H](O)CC[C@H](C)[C@@H](OC(=O)N2CCN(C)CC2)/C=C/[C@@H]1C [Compound 261, [(2S,3S,4E,6R,7S,10R)-10-hydroxy-2-[(E)-1-[3-[(4-hydroxypiperidine-1-carbonyl)oxymethyl]phenyl]prop-1-en-2-yl]-3,7-dimethyl-12-oxo-1-oxacyclododec-4-en-6-yl] 4-methylpiperazine-1-carboxylate] | −36.811 | 57.6 | – | 23300 | 76.6 | 304.222 | −89.906 | 32.3 | – | – | – | – | – | –
